“Also recorded” adds a separate entry of the source. Like-named read-outs stand apart in the source and are kept apart here.
Assays:
M14 cells = test system: M14 cells
Description: ApoTox-Glo™ Triplex Assay which allows one to simultaneously assess the effect of small molecules on cell viability, toxicity, caspase activity, and cell cycle all in the same well (Niles, A. L.; Moravec, R. A.; Riss, T. L. In vitro viability and cytotoxicity testing and same-well multi-parametric combinations for high throughput screening. Curr Chem Genomics 2009, 3, 33-41) was utilized. First, a mixture of 2 fluorogenic substrates was added to cells. GF-AFC substrate is cell-permeant and non-lytic to cells, allowing the measurement of active protease inside live cells. The second substrate (bis-AAF-R110 Substrate) is not cell-permeable and is only cleaved when proteases are released from cells due to the loss of membrane integrity typical of cell death. This step generates an inversely correlated measurement of cell viability and toxicity.
The second addition is luminogenic DEVD-peptide substrate for caspase-3/7 and Ultra-Glo™ Recombinant Thermostable Luciferase. Caspase-3/7 cleavage of the substrate generates a luminescent signal which correlates with caspase-3/7 activation as a key indicator of apoptosis. As markers for cytotoxicity and apoptosis are transient, the assay was conducted in time course format with time points at 4, 24, 48, and 72 h.
M14 #5 cells were plated in 384-well format at a density of 1,250 cells in 5 μL of serum-free DMEM media and incubated at 37° C. in 5% CO2 for 4 h. Control and test compounds were serially diluted in a ratio of 1:3 and added to wells in 4 μL. […] Plates were incubated at 37° C. in 5% CO2 for 4, 24, 48, and 72 h. At the end of each time point Viability/Cytotoxicity™ Reagent was prepared containing 400 μM glycylphenylalanyl-aminofluorocoumarin (GF-AFC) substrate (cleavable by live cell proteases) and 400 μM bis-alanylalanyl-phenylalanyl-rhodamine 110 (bis-AAF-R110) substrate (cleavable by dead cell proteases). 4 μL of the Viability/Cytotoxicity™ Reagent was used per well. The plate was incubated for 30 min at 37° C. Fluorescence was read at λEx=400 nm and λEm=505 nm for GF-AFC and λEx=485 nm and λEm=520 nm for bis-AAF-R110 on the BioTek Synergy™ 4 Multi-Mode Microplate Reader. Caspase-Glo® 3/7 Reagent was then added in 12 μL volume. The plate was incubated for 30 min at room temperature and luminescence was measured on the BioTek Synergy™ 4 Multi-Mode Microplate Reader.

calpain in WM266-4 cells = assay: Calpain activity assay (Calpain-Glo); type: cell-based, human; conditions: 100 μM; 30 min, 4 and 24 h
Description: The Calpain-Glo Protease Assay (Promega cat #) was used to measure the calpain enzyme activity in live cells, according to the manufacturer's instructions. 1,250 of WM-266-4 cells were plated in 384-well white TC-treated plates in 5 μL of serum-free EMEM media. The cells were incubated overnight at 37° C., 5% CO2 and 95% relative humidity and 5 μL of test compounds 2155-14, (100 μM), calpain inhibitor III and PD151746 (25 μM) were added alone or in combination and incubated at 37° C., 5% CO2, and 95% relative humidity for 0.5, 4, and 24 h. After incubation, 10 μL, of a freshly prepared dilution of the Calpain-Glo Reagent stock solution (consisting of Suc-LLVY-Glo™ substrate, Calpain-Glo™ buffer, Luciferin Detection Reagent, and CaCl2) was added to cells at above mentioned times and luminescence was recorded with a Neo 2 microplate reader (Biotek Inc). All experiments were performed in triplicate and the values provided are the calculated average of at least three independent experiments.

lamin A/C = assay: DARTS (drug affinity responsive target stability); type: binding, human
Excerpt: (§1) (FIG. 26A, DARTS workflow). Proteins that bind the lead present as bands of differential intensity on SDS-PAGE and are identified using proteomic techniques. […] Bands from non-treated control and sample treated with 2155-14 were excised, trypsinized, and run on LC/MS/MS. […] In addition to lamin A/C, lamin B2, transketolase (TKT), and cytoskeleton-associated protein 4 (CKAP4) were also identified as possible targets (Table 7 shown in FIG. 27). The exclusive unique peptide counts were too close to make the identification of one over the other with confidence.
(§2) WM266-4 melanoma cell lysates were prepared using a routine protocol with commercially available M-PER buffer supplemented with protease and phosphatase inhibitors. Lysates were split into control and compound test portions, and DMSO and 2155-14 were added to the respective lysate portions and incubated at RT for 1 h to allow for 2155-14 binding to its target(s). Pronase dilutions (1:100. 1:300, 1:1000. 1:3000 and 1:10000, Roche #10165921001) were prepared from 10 mg/mL stock. Lysates were split into 5 aliquots, and pronase dilutions were added to lysate aliquots and incubated at RT for 30 min. […]
(§3) Each sample was analyzed by liquid-chromatography-tandem MS (LC-MS/MS) using an EASY-nLC 1000 system coupled to a Q Exactive mass spectrometer (Thermo Fisher Scientific). […]

DDX1 = biological target: T1, DDX1 (Homo sapiens, UniProt Q92499); assay: DARTS with western blot; type: binding; conditions: WM266-4 lysates
T1 construct: WM-266-4 and M14 cells were sonicated in RIPA lysis buffer; endogenous in cells; host or cells: WM266-4 (and M14) melanoma cells and lysates
T1 sequence (Q92499 whole entry): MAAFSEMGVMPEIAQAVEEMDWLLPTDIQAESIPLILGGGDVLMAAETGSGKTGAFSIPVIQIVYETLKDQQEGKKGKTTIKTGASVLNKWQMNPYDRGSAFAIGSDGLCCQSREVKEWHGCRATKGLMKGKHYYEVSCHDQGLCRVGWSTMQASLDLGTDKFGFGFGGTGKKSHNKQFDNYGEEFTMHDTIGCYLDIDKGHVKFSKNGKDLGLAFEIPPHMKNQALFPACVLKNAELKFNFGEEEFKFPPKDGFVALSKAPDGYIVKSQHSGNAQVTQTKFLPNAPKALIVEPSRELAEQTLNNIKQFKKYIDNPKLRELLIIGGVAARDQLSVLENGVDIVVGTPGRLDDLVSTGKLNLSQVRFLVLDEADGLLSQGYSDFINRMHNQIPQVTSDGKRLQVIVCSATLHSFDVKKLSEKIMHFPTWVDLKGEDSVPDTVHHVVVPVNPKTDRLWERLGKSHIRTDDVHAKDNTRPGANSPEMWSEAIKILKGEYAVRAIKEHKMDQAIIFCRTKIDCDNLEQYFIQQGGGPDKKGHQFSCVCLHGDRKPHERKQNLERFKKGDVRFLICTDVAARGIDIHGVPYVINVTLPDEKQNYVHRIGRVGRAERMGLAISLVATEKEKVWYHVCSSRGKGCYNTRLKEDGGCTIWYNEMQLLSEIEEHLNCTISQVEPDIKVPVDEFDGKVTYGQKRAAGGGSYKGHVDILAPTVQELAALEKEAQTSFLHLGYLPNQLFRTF
Excerpt: as §1, §2, §3

hnRNP A2/B1 = assay: DARTS with western blot; type: binding, human; conditions: WM266-4 lysates
Excerpt: as §1, §2, §3

hnRNP H2 = assay: DARTS with western blot; type: binding, human; conditions: WM266-4 lysates
Excerpt: as §1, §2, §3

[1] = time course 4-72 h, time stated at the place

O=C1NC[C@H](Cc2ccccc2)N(C[C@@H]2CCCN2C[C@@H](CC2CCCCC2)N2C[C@H](Cc3ccc(O)cc3)N(CCc3ccccc3)C(=O)C2=O)C1=O [Compound 2155-14, (S)-1((R)-1((S)-2-(((S)-6-benzyl-2,3-dioxopiperazin-1-yl)methyl)pyrrolidin-1-yl)-3-cyclohexylpropan-2-yl)-5-(4-hydroxybenzyl)-4-phenethylpiperazine-2,3-dione]
caspase signal (M14 cells; 24 h): 550 % of untreated control | caspase signal (M14 cells; 48 h): 400 % of untreated control | ApoTox caspase-3/7 activity (M14 cells; [1]): no markers for apoptosis and cytotoxicity; also recorded: The 24 h time point was characterized by a significant spike in caspase activity; also recorded: By 72 h the caspase signal has decayed | ApoTox viability (live cell protease) (M14 cells; [1]): no effect on cell viability as measured by live cell protease at the 4 h time point; also recorded: dose dependent response at 48 h | calpain activity (calpain in WM266-4 cells): Calpain activity at 30 min was at the baseline level; also recorded: time-dependent increase of activity at 4 and 24 h | DARTS-LC-MS/MS identification of protected band (lamin A/C; 100 μM, 1:1,000 pronase): Lamin A/C was the protein with the highest score | protection of lamin A/C from pronase (lamin A/C; WM266-4 lysates, western blot): protects these proteins from pronase proteolysis | protection of DDX1 from pronase (DDX1): protects these proteins from pronase proteolysis | protection of hnRNPA2/B1 from pronase (hnRNP A2/B1): protects these proteins from pronase proteolysis | protection of hnRNPH2 from pronase (hnRNP H2): protects these proteins from pronase proteolysis
